Reference: patent publication US4521406A, “Antitumor agent” (priority 1980, dated 1985)
“Also recorded” adds a separate entry of the source.

How the values were obtained:
[1] = test system: human Glioblastoma; assay: Morphological changes of human Glioblastoma (Experimental Example 4); format: cell-based; details: 50 μg/ml
[2] = test system: tumor; assay: General statements on antitumor activity; details: applicant's summary of Experimental Examples 1 to 6
[3] = test system: tumor; details: general statement; cited from earlier work
[4] = test system: HeLa cells; assay: Growth inhibition of HeLa cells (Experimental Example 1); details: for number of cells: drug used alone (control)
[5] = test system: Glioblastoma cancer cells; assay: Glioblastoma transplanted into the brain of rats, survival (Experimental Example 6); details: 5-fluorocytosine 4 ml (10 mg/ml) i.p. every other day; 0.02 ml cytosinedeaminase (1 IU/ml) or PBS to transplantation site
[6] = general statement; cited from earlier work

SMILES | morphological changes [1] | antitumor activity of the individual agents / of combined use [2] | antitumor activity [3] | number of cells ([4]; 2 days elapsed, 24 h contact) | number of cells ([4]; 4 days elapsed, 24 h contact) | number of cells ([4]; 6 days elapsed, 24 h contact) | antitumor activity when used singly ([4]; HeLa cells, used alone, result in words) | number of cells ([4]; day 0, before 24 h treatment) | Average days of survival [5] | toxicity [6]
Nc1nc(=O)[nH]cc1F [5-fluorocytosine] | morphological changes such as the disintegration of the cytoplasm and the deformation of the nucleus were evidently noted | neither 5-fluorocytosine nor cytosinedeaminase has antitumor activity | no antitumor activity | 73 ×10^-4 cells/ml | 120 ×10^-4 cells/ml | 205 ×10^-4 cells/ml | do not have any antitumor activity | 29 ×10^-4 cells/ml | 32 days | –
O=c1[nH]cc(F)c(=O)[nH]1 [5-fluorouracil] | – | – | intense antitumor activity; also recorded: effective against solid tumors | – | – | – | – | – | – | intense toxicity in oral and intravenous administrations
O=c1[nH]c(=O)n(C2CCCO2)cc1F (stereo not drawn) [tetrahydrofuryl 5-fluorouracil] | – | – | – | – | – | – | – | – | – | low toxicity
